Reference: publication PMC7093416, “Selective USP7 inhibition elicits cancer cell killing through a p53-dependent mechanism” (Scientific Reports, 2020)

Test system: panel of 484 cancer cell lines
Assay: PRISM cancer cell line profiling, 5 days
Type: cell-based
Set-up: AUC: unit not given beside the values
Description: Cancer cell line profiling was performed using the Broad’s PRISM platform. Cell treatment and data analysis were performed as described in Yu et al[42]. Raw Luminex signal was converted to AUC values for each cell line as described. The resulting AUC profile for each compound was modeled against DepMap using the limma package in R[71]. Because hotspot mutation analysis was performed against DepMap, TP53 annotations in Fig. 6c,d are directly from DepMap.

COc1ccc(C2=N[C@@H](c3ccc(Cl)cc3)[C@@H](c3ccc(Cl)cc3)N2C(=O)N2CCNC(=O)C2)c(OC(C)C)c1 [Nutlin-3A]
AUC (NCIH2170_LUNG): 1.154 | AUC (NCIH2172_LUNG): 1.147 | AUC (NCIH2228_LUNG): 1.087 | AUC (NCIH2347_LUNG): 0.9531 | AUC (NCIH2444_LUNG): 1.324 | AUC (NCIH2452_PLEURA): 1.028 | AUC (NCIN87_STOMACH): 1.465 | AUC (NUGC3_STOMACH): 1.1161 | AUC (NUGC4_STOMACH): 0.888 | AUC (OAW42_OVARY): 1.011 | AUC (OC314_OVARY): 0.964 | AUC (OC316_OVARY): 0.9756 | AUC (OE19_OESOPHAGUS): 1.199 | AUC (OE21_OESOPHAGUS): 1.087 | AUC (OE33_OESOPHAGUS): 0.9763 | AUC (ONCODG1_OVARY): 1.1325 | AUC (ONS76_CENTRAL_NERVOUS_SYSTEM): 0.8865 | AUC (OSRC2_KIDNEY): 0.8477 | AUC (OUMS23_LARGE_INTESTINE): 1.065 | AUC (OV56_OVARY): 1.192 | AUC (OVCAR8_OVARY): 1.207 | AUC (OVISE_OVARY): 0.8578 | AUC (OVK18_OVARY): 0.8595 | AUC (OVSAHO_OVARY): 1.156 | AUC (OVTOKO_OVARY): 0.9039 | AUC (PANC1_PANCREAS): 1.1 | AUC (PANC0203_PANCREAS): 1.166 | AUC (PANC0327_PANCREAS): 1.409 | AUC (PANC0403_PANCREAS): 1.138 | AUC (PANC0813_PANCREAS): 1.0676 | AUC (PANC1005_PANCREAS): 1.216 | AUC (PATU8902_PANCREAS): 1.154 | AUC (PATU8988S_PANCREAS): 1.234 | AUC (PATU8988T_PANCREAS): 1.162 | AUC (PC3_PROSTATE): 0.976 | AUC (PC14_LUNG): 1.1376 | AUC (PECAPJ15_UPPER_AERODIGESTIVE_TRACT): 1.095 | AUC (PECAPJ41CLONED2_UPPER_AERODIGESTIVE_TRACT): 1.019 | AUC (PECAPJ49_UPPER_AERODIGESTIVE_TRACT): 1.2004 | AUC (PK1_PANCREAS): 1.122 | AUC (PK45H_PANCREAS): 1.1189 | AUC (PK59_PANCREAS): 1.0633 | AUC (PLCPRF5_LIVER): 1.234 | AUC (PSN1_PANCREAS): 1.126 | AUC (QGP1_PANCREAS): 1.087 | AUC (RCC10RGB_KIDNEY): 0.8832 | AUC (RCM1_LARGE_INTESTINE): 1.202 | AUC (RD_SOFT_TISSUE): 1.042 | AUC (RERFLCAD1_LUNG): 1.147 | AUC (RERFLCAD2_LUNG): 1.183 | AUC (RERFLCAI_LUNG): 1.0697 | AUC (RERFLCKJ_LUNG): 1.11 | AUC (RERFLCMS_LUNG): 1.091 | AUC (RH30_SOFT_TISSUE): 1.041 | AUC (RKN_SOFT_TISSUE): 1.06 | AUC (RKO_LARGE_INTESTINE): 0.9236 | AUC (RL952_ENDOMETRIUM): 0.9689 | AUC (RMGI_OVARY): 0.9145 | AUC (RMUGS_OVARY): 1.151 | AUC (RT4_URINARY_TRACT): 1.199 | AUC (RT112_URINARY_TRACT): 0.9358 | AUC (RVH421_SKIN): 1.087 | AUC (S117_SOFT_TISSUE): 1.193 | AUC (SBC5_LUNG): 1.066 | AUC (SCABER_URINARY_TRACT): 1.156 | AUC (SCC25_UPPER_AERODIGESTIVE_TRACT): 1.213 | AUC (SF126_CENTRAL_NERVOUS_SYSTEM): 0.9298 | AUC (SF295_CENTRAL_NERVOUS_SYSTEM): 1.194 | AUC (SF539_CENTRAL_NERVOUS_SYSTEM): 1.114 | AUC (SH4_SKIN): 0.9981 | AUC (SH10TC_STOMACH): 1.171 | AUC (SIMA_AUTONOMIC_GANGLIA): 1.067 | AUC (SJSA1_BONE): 0.8737 | AUC (SKES1_BONE): 1.109 | AUC (SKHEP1_LIVER): 0.8252 | AUC (SKLU1_LUNG): 1.249 | AUC (SKMEL2_SKIN): 1.0683 | AUC (SKMEL3_SKIN): 1.137 | AUC (SKMEL5_SKIN): 0.8995 | AUC (SKMEL24_SKIN): 0.8575 | AUC (SKMEL30_SKIN): 1.211 | AUC (SKMES1_LUNG): 0.9911 | AUC (SKNAS_AUTONOMIC_GANGLIA): 1.242 | AUC (SKNBE2_AUTONOMIC_GANGLIA): 1.137 | AUC (SKOV3_OVARY): 1.101 | AUC (SKUT1_SOFT_TISSUE): 1.057 | AUC (SNB75_CENTRAL_NERVOUS_SYSTEM): 1.2 | AUC (SNGM_ENDOMETRIUM): 1.197 | AUC (SNU46_UPPER_AERODIGESTIVE_TRACT): 1.125 | AUC (SNU61_LARGE_INTESTINE): 1.275 | AUC (SNU81_LARGE_INTESTINE): 1.088 | AUC (SNU213_PANCREAS): 1.089 | AUC (SNU245_BILIARY_TRACT): 1.207 | AUC (SNU308_BILIARY_TRACT): 1.147 | AUC (SNU398_LIVER): 1.135 | AUC (SNU407_LARGE_INTESTINE): 0.9535 | AUC (SNU410_PANCREAS): 1.257 | AUC (SNU423_LIVER): 0.9946 | AUC (SNU449_LIVER): 1.202 | AUC (SNU466_CENTRAL_NERVOUS_SYSTEM): 1.108 | AUC (SNU601_STOMACH): 1.158 | AUC (SNU668_STOMACH): 0.9614 | AUC (SNU685_ENDOMETRIUM): 1.162 | AUC (SNU719_STOMACH): 1.114 | AUC (SNU738_CENTRAL_NERVOUS_SYSTEM): 1.181 | AUC (SNU761_LIVER): 1.163 | AUC (SNU840_OVARY): 0.883 | AUC (SNU869_BILIARY_TRACT): 1.149 | AUC (SNU886_LIVER): 1.1718 | AUC (SNU1041_UPPER_AERODIGESTIVE_TRACT): 1.098 | AUC (SNU1066_UPPER_AERODIGESTIVE_TRACT): 1.273 | AUC (SNU1076_UPPER_AERODIGESTIVE_TRACT): 1.222 | AUC (SNU1077_ENDOMETRIUM): 1.256 | AUC (SNU1079_BILIARY_TRACT): 1.079 | AUC (SNU1105_CENTRAL_NERVOUS_SYSTEM): 1.1033 | AUC (SNU1196_BILIARY_TRACT): 1.008 | AUC (SNU1214_UPPER_AERODIGESTIVE_TRACT): 1.185 | AUC (SNUC2A_LARGE_INTESTINE): 1.021 | AUC (SNUC4_LARGE_INTESTINE): 0.9159 | AUC (SNUC5_LARGE_INTESTINE): 1.066 | AUC (SQ1_LUNG): 1.1 | AUC (SUIT2_PANCREAS): 1.124 | AUC (SW48_LARGE_INTESTINE): 0.6832 | AUC (SW480_LARGE_INTESTINE): 1.185 | AUC (SW579_THYROID): 1.033 | AUC (SW620_LARGE_INTESTINE): 1.193 | AUC (SW780_URINARY_TRACT): 0.8319 | AUC (SW837_LARGE_INTESTINE): 1.121 | AUC (SW900_LUNG): 1.197 | AUC (SW948_LARGE_INTESTINE): 1.0613 | AUC (SW1088_CENTRAL_NERVOUS_SYSTEM): 1.216 | AUC (SW1271_LUNG): 0.9516 | AUC (SW1353_BONE): 1.036 | AUC (SW1573_LUNG): 0.9119 | AUC (SW1710_URINARY_TRACT): 1.113 | AUC (SW1990_PANCREAS): 1.0624 | AUC (T3M10_LUNG): 1.167 | AUC (T24_URINARY_TRACT): 1.096 | AUC (T47D_BREAST): 1.041 | AUC (T98G_CENTRAL_NERVOUS_SYSTEM): 0.9597 | AUC (TCCPAN2_PANCREAS): 1.066 | AUC (TCCSUP_URINARY_TRACT): 1.257 | AUC (TE1_OESOPHAGUS): 1.118 | AUC (TE4_OESOPHAGUS): 1.169 | AUC (TE5_OESOPHAGUS): 1.116 | AUC (TE6_OESOPHAGUS): 1.1488 | AUC (TE8_OESOPHAGUS): 1.279 | AUC (TE9_OESOPHAGUS): 0.9402 | AUC (TE10_OESOPHAGUS): 1.052 | AUC (TE11_OESOPHAGUS): 1.135 | AUC (TEN_ENDOMETRIUM): 1.229 | AUC (TM31_CENTRAL_NERVOUS_SYSTEM): 1.145 | AUC (TM87_SOFT_TISSUE): 0.8528 | AUC (TOV21G_OVARY): 0.8573 | AUC (TOV112D_OVARY): 1.15 | mean diff. between TP53 functional WT and functional mutant populations (AUC) (TP53 annotation by functional scores of Giacomelli et al.): 0.165 ± 0.011 | AUC (TT2609C02_THYROID): 1.113 | AUC (TT_OESOPHAGUS): 1.115 | AUC (TT_THYROID): 0.8544 | AUC (TUHR4TKB_KIDNEY): 0.8234 | AUC (U2OS_BONE): 0.8753 | AUC (U118MG_CENTRAL_NERVOUS_SYSTEM): 1.124 | AUC (U251MG_CENTRAL_NERVOUS_SYSTEM): 1.1855 | AUC (UACC62_SKIN): 0.841 | AUC (UACC257_SKIN): 0.9099 | AUC (UBLC1_URINARY_TRACT): 1.2 | AUC (UMUC1_URINARY_TRACT): 1.103 | AUC (UO31_KIDNEY): 0.9228 | AUC (VMCUB1_URINARY_TRACT): 1.108 | AUC (VMRCRCW_KIDNEY): 1.098 | AUC (VMRCRCZ_KIDNEY): 1.139 | AUC (WM88_SKIN): 0.8161 | AUC (WM793_SKIN): 0.8713 | AUC (WM983B_SKIN): 0.9957 | AUC (WM1799_SKIN): 0.8817 | AUC (WM2664_SKIN): 0.8653 | AUC (YAPC_PANCREAS): 1.201 | AUC (YD8_UPPER_AERODIGESTIVE_TRACT): 1.226 | AUC (YD10B_UPPER_AERODIGESTIVE_TRACT): 1.17 | AUC (YD15_SALIVARY_GLAND): 1.2 | AUC (YD38_UPPER_AERODIGESTIVE_TRACT): 1.227 | AUC (YH13_CENTRAL_NERVOUS_SYSTEM): 1.109 | AUC (YKG1_CENTRAL_NERVOUS_SYSTEM): 1.146 | AUC (ZR751_BREAST): 1.121
